Measured values reported in patent US20230086706A1, “Compounds for promoting follicle maturation” (Aarhus Universitet, priority 2020, published 2023).

Tests used:
[1] = test system: ID8 Mouse Ovarian Surface Epithelial Cell Line; assay: Toxicity assay (cell morphology by light microscopy); format: cell-based; conditions: 1 μM compound, cells grown for 2 days, morphology checked using light microscopy
Procedure: Immediately, 1 μM compound was added to the media and cells were grown for 2 days and morphology checked using light microscopy.

[2] = test system: ovaries (primordial, primary and secondary follicles); assay: Evaluation of follicle numbers after ovary organ culture with compound; format: cell-based, C57BL/6j×CBA F1 hybrid mice; conditions: ovaries of 7-day-old female pups cultured four days; 0.5 μM and 1 μM for 582 and 583, 25 μM for 798 and 798 (so in the source)
Procedure: C57BL/6j×CBA F1 hybrid mice (Janvier Labs, France) were housed and bred in the animal facilities at Department of Biomedicine, Aarhus University. Animals were housed in a 12:12 h controlled light-dark environment and were provided with food and water ad libitum. 7-day-old female pups were used for the study.
Pups were sacrificed and ovaries were excised. Using a stereomicroscope MZ75 (Leica Microsystems, Germany), excess tissue was removed. […] 200-300 μL of culture medium was added to the well below the insert and up to two ovaries were placed on the membrane of each insert. […] Up to six wells in the 24-well plate were used for inserts. […] The ovaries were cultured at 37° C., 5% CO2 for four days. 150 μL of medium was replaced every other day with fresh culture medium.
Ovaries kept in organ culture for four days were fixed for 24 hours in 4% paraformaldehyde solution at 4° C. After fixation, ovaries were dehydrated in ethanol series using 70%, 96% and 99.9% ethanol. Xylene was used as clearing agent before the ovaries were infiltrated in paraffin wax. 5 μm-sections of samples in paraffin were cut using a microtome (Cut 6062, SLEE medical, Germany). […] The samples were then rinsed in dH2O, stained in hematoxylin for 40 sec., rinsed in dH2O for 5 min., and stained in eosin for 46 sec. The samples were dehydrated in ethanol: 2×2 min. in 96% ethanol, 2×2 min in 99.9% ethanol, and finally cleared up in xylene for at least 30 min before mounting the samples using Eukitt mounting medium (Sigma-Aldrich) and cover glass. […] The follicles of every 3rd to 4th section of each ovary were counted and the distribution of follicles in the different stages in percentage was determined.

| Structure (SMILES) | toxicity to the grown cells / alteration of the morphology of the cells [1] | overall appearance and size of the ovaries in culture (visual inspection of ovarian sections) [2] |
| --- | --- | --- |
| NC(=O)c1ccc[n+](Cc2ccccc2)c1 [Compound 582, 1-benzyl-3-carbamoylpyridin-1-ium] | not to alter the morphology of the cells nor to be toxic to the grown cells | healthy and the size was normal, no shrinkage was observed |
| C[n+]1cccc(C(N)=O)c1 [Compound 583, 3-carbamoyl-1-methylpyridin-1-ium] | not to alter the morphology of the cells nor to be toxic to the grown cells | healthy and the size was normal, no shrinkage was observed |
| NC(=O)c1ccc[n+](C2CCOCC2)c1 [Compound 798, 3-carbamoyl-1-(tetrahydro-2H-pyran-4-yl)pyridin-1-ium] | not to alter the morphology of the cells nor to be toxic to the grown cells | healthy and the size was normal, no shrinkage was observed |
| CC1=C2C[C@H]3[C@@H](CC=C4C[C@@H](O)CC[C@@]43C)[C@@H]2CC[C@]12O[C@@H]1C[C@H](C)CN[C@H]1[C@H]2C [cyclopamine, Cyclopamine, reference compound] | not to alter the morphology of the cells nor to be toxic to the grown cells | – |
